Biological target: Recombinant human HSD17B13 enzyme (Homo sapiens (Human), UniProt Q7Z5P4)
Assay: HSD17b13 NAD(P)H-Glo Biochemical Assay
Settings: for IC50: 50 uM estradiol, 1 mM NAD+, read-out: HSD17β13 IC50
Method in brief: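 Luminescent NAD(P)H-Glo detection (1 h, RT) quantified cofactor reduction after a 3 h, 37° C reaction of human HSD17B13 with estradiol (50 uM final) and NAD+ (1 mM final). Compounds were first pre-incubated 20 min at RT with enzyme in Tris pH 7.4 buffer containing Tween-20 and BSA.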

Chain of Recombinant human HSD17B13 enzyme (Q7Z5P4 20-300): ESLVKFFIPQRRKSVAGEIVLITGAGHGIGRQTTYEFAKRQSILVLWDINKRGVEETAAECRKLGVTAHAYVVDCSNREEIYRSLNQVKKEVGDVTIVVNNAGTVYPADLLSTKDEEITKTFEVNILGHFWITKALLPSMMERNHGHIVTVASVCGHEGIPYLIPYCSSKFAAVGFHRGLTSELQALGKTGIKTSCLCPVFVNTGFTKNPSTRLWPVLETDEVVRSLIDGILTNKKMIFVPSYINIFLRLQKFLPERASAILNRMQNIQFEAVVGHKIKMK

| SMILES | IC50 [µM] | inhibition at 10 µM (read-out: HSD17β13 inhibition at 10 uM) [%] |
| --- | --- | --- |
| CS(=O)(=O)N1CCN(c2ccc3c(cnn3-c3nccc(O)c3F)c2)CC1 [Compound 28.06, 3-Fluoro-2-(5-(4-(methyl-sulfonyl)piperazin-1-yl)-1H-indazol-1-yl)pyridin-4-ol] | 1 to 30 |  |
| CS(=O)(=O)N1CCN(c2ccc3c(cnn3-c3cc(O)cc(C(F)(F)F)c3)c2)CC1 [Compound 28.07, 3-(5-(4-(Methylsulfonyl)-piperazin-1-yl)-1H-indazol-1-yl)-5-(trifluoromethyl)phenol] | 0.1 to 1 |  |
| CS(=O)(=O)N1CCN(c2cc3cnn(-c4cc(O)c(F)c(C(F)(F)F)c4)c3nn2)CC1 [Compound 28.08, 2-Fluoro-5-(5-(4-(methyl-sulfonyl)piperazin-1-yl)-1H-pyrazolo[3,4-c]pyridazin-1-yl)-3-(trifluoromethyl)phenol] | 1 to 30 |  |
| CNC(=O)C1(c2ccc3c(cnn3-c3cc(O)c(F)c(F)c3)c2)CCN(S(C)(=O)=O)CC1 [Compound 29, 4-(1-(3,4-Difluoro-5-hydroxyphenyl)-1H-indazol-5-yl)-N-methyl-1-(methylsulfonyl)piperidine-4-carboxamide] | 1 to 30 |  |
| CN(C)C(=O)C1(c2ccc3c(cnn3-c3cc(O)c(F)c(F)c3)c2)CCN(S(C)(=O)=O)CC1 [Compound 29.01, 4-(1-(3,4-Difluoro-5-hydroxy-phenyl)-1H-indazol-5-yl)-N,N-dimethyl-1-(methyl-sulfonyl)piperidine-4-carbox-amide] |  | < 20 |
| O=S(=O)(c1ccc2c(cnn2-c2cc(O)c(F)c(F)c2)c1)N1CCCCC1 [Compound 30, 2,3-Difluoro-5-(5-(piperidin-1-ylsulfonyl)-1H-indazol-1-yl)phenol] | 1 to 30 |  |

Next, values leading:

| IC50 [µM] | inhibition at 10 µM (read-out: HSD17β13 inhibition at 10 uM) [%] | SMILES |
| --- | --- | --- |
| 0.1 to 1 |  | O=S(=O)(c1ccc2c(cnn2-c2cc(O)c(F)c(F)c2)c1)N1CCOCC1 [Compound 30.01, 2,3-Difluoro-5-(5-(morpholinosulfonyl)-1H-indazol-1-yl)phenol] |
| 0.1 to 1 |  | CS(=O)(=O)N1CCN(c2ccc3c(cnn3-c3cc(C(F)(F)F)cc(O)n3)c2)CC1 [Compound 31, 6-(5-(4-(Methylsulfonyl)piperazin-1-yl)-1H-indazol-1-yl)-4-(trifluoromethyl)pyridin-2-ol] |
| 1 to 30 |  | CS(=O)(=O)N1CCN(c2ccc3nn(-c4cc(C(F)(F)F)cc(O)n4)cc3c2)CC1 [Compound 31.01, 6-(5-(4-(Methylsulfonyl)-piperazin-1-yl)-2H-indazol-2-yl)-4-(trifluoromethyl)-pyridin-2-ol] |
| 1 to 30 |  | CS(=O)(=O)N1CCN(c2ccc3c(cnn3-c3cc(O)cc(C(F)(F)F)n3)c2)CC1 [Compound 31.02, 2-(5-(4-(Methylsulfonyl)-piperazin-1-yl)-1H-indazol-1-yl)-6-(trifluoromethyl)-pyridin-4-ol] |
| 1 to 30 |  | CS(=O)(=O)N1CCN(c2ccc3nn(-c4cc(O)cc(C(F)(F)F)n4)cc3c2)CC1 [Compound 31.03, 2-(5-(4-(Methylsulfonyl)-piperazin-1-yl)-2H-indazol-2-yl)-6-(trifluoromethyl)-pyridin-4-ol] |

Source: patent US20240034736A1, “HSD17B13 INHIBITORS AND USES THEREOF” (FL2022-001, Inc., priority 2020, published 2024)
